Results from patent US8680108B2, “Substituted fused aryl and heteroaryl derivatives as PI3K inhibitors” (Incyte Corporation, priority 2009, dated 2014).
Counter-ions that a name gives are not always drawn.

The molecules below were run against T1, PI3Kδ (p110δ/p85α) (Homo sapiens, UniProt O00329) (assay: PI3Kδ scintillation proximity assay). Details: not given.
T1 construct: purchased Millipore (Bedford, Mass.)
Type: biochemical
Excerpt: Materials: [γ-^33P]ATP (10 mCi/mL) was purchased from Perkin-Elmer (Waltham, Mass.). Lipid kinase substrate, D-myo-Phosphatidylinositol 4,5-bisphosphate (PtdIns(4,5)P2)D (+)-sn-1,2-di-O-octanoylglyceryl, 3-O-phospho linked (PIP2), CAS 204858-53-7, was purchased from Echelon Biosciences (Salt Lake City, Utah). PI3Kδ (p110δ/p85α) was purchased from Millipore (Bedford, Mass.). ATP, MgCl2, DTT, EDTA, MOPS and CHAPS were purchased from Sigma-Aldrich (St. Louis, Mo.). Wheat Germ Agglutinin (WGA) YSi SPA Scintillation Beads was purchased from GE healthcare life sciences (Piscataway, N.J.).
Assay: The kinase reaction was conducted in polystyrene 384-well matrix white plate from Thermo Fisher Scientific in a final volume of 25 μL. Inhibitors were first diluted serially in DMSO and added to the plate wells before the addition of other reaction components. The final concentration of DMSO in the assay was 0.5%. The PI3K assays were carried out at room temperature in 20 mM MOPS, pH 6.7, 10 mM MgCl2, 5 mM DTT and CHAPS 0.03%. Reactions were initiated by the addition of ATP, the final reaction mixture consisted of 20 μM PIP2, 20 μM ATP, 0.2 μCi [γ-^33P] ATP, 4 nM PI3Kδ. Reactions were incubated for 210 minutes and terminated by the addition of 40 μL SPA beads suspended in quench buffer: 150 mM potassium phosphate pH 8.0, 20% glycerol. 25 mM EDTA, 400 μM ATP. The final concentration of SPA beads is 1.0 mg/mL. After the plate sealing, plates were shaken overnight at room temperature and centrifuged at 1800 rpm for 10 minutes, the radioactivity of the product was determined by scintillation counting on Topcount (Perkin-Elmer). IC50 determination was performed by fitting the curve of percent control activity versus the log of the inhibitor concentration using the GraphPad Prism® 3.0 software.

T1 sequence (O00329 whole entry): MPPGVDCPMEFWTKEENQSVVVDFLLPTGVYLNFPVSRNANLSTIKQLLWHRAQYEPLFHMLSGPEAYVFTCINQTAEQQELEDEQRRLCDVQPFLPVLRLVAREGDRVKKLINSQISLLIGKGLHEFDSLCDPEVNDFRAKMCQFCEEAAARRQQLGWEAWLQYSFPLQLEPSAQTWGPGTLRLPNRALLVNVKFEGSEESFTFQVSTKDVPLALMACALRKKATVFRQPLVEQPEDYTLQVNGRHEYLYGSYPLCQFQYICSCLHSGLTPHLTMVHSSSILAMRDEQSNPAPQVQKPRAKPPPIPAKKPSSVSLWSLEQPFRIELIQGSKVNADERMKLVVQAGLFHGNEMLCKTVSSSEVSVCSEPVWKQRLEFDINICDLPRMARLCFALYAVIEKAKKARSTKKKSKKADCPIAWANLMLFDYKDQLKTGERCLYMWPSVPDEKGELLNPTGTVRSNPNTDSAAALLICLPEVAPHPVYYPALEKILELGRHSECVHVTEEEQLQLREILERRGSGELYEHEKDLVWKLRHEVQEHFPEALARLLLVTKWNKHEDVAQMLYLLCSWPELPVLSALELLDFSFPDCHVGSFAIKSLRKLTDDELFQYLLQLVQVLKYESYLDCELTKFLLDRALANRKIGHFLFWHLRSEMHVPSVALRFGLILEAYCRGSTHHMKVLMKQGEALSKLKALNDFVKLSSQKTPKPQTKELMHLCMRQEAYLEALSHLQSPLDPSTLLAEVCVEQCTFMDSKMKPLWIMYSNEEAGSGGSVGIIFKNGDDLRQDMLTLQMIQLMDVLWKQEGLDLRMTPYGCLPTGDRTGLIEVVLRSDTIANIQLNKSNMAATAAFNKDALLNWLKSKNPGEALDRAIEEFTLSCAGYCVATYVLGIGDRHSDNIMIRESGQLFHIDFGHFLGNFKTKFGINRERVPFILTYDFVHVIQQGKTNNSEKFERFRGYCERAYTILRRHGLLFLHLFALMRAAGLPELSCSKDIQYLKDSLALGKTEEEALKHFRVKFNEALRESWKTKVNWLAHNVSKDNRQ
T1 sequence (P27986 whole entry partner): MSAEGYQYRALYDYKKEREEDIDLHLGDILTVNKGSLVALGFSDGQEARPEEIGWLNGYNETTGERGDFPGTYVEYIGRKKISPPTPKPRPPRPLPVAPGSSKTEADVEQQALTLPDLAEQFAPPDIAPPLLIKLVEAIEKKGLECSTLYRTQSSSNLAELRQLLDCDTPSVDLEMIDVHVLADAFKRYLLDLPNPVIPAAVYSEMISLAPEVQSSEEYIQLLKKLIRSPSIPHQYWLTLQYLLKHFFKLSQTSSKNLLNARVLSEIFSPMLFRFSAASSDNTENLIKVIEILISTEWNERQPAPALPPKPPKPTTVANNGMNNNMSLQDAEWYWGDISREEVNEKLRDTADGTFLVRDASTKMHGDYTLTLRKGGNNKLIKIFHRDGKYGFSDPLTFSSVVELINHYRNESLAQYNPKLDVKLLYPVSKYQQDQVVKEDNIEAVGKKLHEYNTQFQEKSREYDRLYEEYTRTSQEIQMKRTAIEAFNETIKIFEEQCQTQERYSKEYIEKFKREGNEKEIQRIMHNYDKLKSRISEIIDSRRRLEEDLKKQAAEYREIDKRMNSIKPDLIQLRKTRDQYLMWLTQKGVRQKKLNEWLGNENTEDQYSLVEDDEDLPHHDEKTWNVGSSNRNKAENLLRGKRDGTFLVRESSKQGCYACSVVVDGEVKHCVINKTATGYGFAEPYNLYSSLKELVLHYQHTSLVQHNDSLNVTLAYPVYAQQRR

Row | Structure (SMILES) | IC50
1 | CC(Nc1ncnc2[nH]cnc12)c1cc(F)c2cccnc2c1N1CCN(C(=O)c2cnn(C)c2)CC1 (stereo not drawn) [Example 103, N-[1-(5-Fluoro-8-{4-[(1-methyl-1H-pyrazol-4-yl)carbonyl]piperazin-1-yl}quinolin-7-yl)ethyl]-9H-purin-6-amine bis(trifluoroacetate)] | < 50 nM
2 | Cc1cc(C(C)Nc2ncnc3[nH]cnc23)c(-c2cc(F)cc(F)c2)c2nnccc12 (single isomer, unassigned) [Example 38, N-{1-[8-(3,5-difluorophenyl)-5-methylcinnolin-7-yl]ethyl}-9H-purin-6-amine] | < 50 nM
3 | CC(Nc1ncnc2[nH]cnc12)c1cc(Cl)c2cccnc2c1N1CCC(c2ccccc2)CC1 (stereo not drawn) [Example 72, N-{1-[5-Chloro-8-(4-phenylpiperidin-1-yl)quinolin-7-yl]ethyl}-9H-purin-6-amine bis(trifluoroacetate)] | > 1000 nM
4 | CC(Nc1ncnc2[nH]cnc12)c1cc(Cl)c2cccnc2c1N1CCC(O)CC1 (stereo not drawn) [Example 43, 1-{5-Chloro-7-[1-(9H-purin-6-ylamino)ethyl]quinolin-8-yl}piperidin-4-ol] | < 50 nM
5 | CNC(=O)c1cc(F)cc(-c2c(C(C)Nc3ncnc4[nH]cnc34)cc(Cl)c3ccnnc23)c1 (stereo not drawn) [Example 40, 3-{5-Chloro-7-[1-(9H-purin-6-ylamino)ethyl]cinnolin-8-yl}-5-fluoro-N-methylbenzamide] | > 1000 nM
6 | CC(Nc1ncnc2[nH]cnc12)c1cc(Cl)c2ccnnc2c1-c1cc(F)cc(F)c1 (single isomer, unassigned) [Example 23, N-{1-[5-Chloro-8-(3,5-difluorophenyl)cinnolin-7-yl]ethyl}-9H-purin-6-amine] | < 50 nM
7 | CC(Nc1ncnc2[nH]cnc12)c1cc(F)c2ccnnc2c1-c1cccc(F)c1 (stereo not drawn) [Example 19, N-{1-[5-Fluoro-8-(3-fluorophenyl)cinnolin-7-yl]ethyl}-9H-purin-6-amine] | 100 to 250 nM
8 | CC(Nc1ncnc2[nH]cnc12)c1cc(Cl)c2cccnc2c1N1CCN(C(=O)c2cnccn2)CC1 (stereo not drawn) [Example 97, N-(1-{5-Chloro-8-[4-(pyrazin-2-ylcarbonyl)piperazin-1-yl]quinolin-7-yl}ethyl)-9H-purin-6-amine bis(trifluoroacetate)] | < 50 nM
9 | CC(Nc1ncnc2[nH]cnc12)c1cc(Cl)c2cccnc2c1N1CCCC(F)C1 (stereo not drawn) [Example 61, N-{1-[5-Chloro-8-(3-fluoropiperidin-1-yl)quinolin-7-yl]ethyl}-9H-purin-6-amine bis(trifluoroacetate)] | 250 to 500 nM
10 | CCC(Nc1ncnc2[nH]cnc12)c1cc(Cl)c2ccnnc2c1-c1cccc(F)c1 (single isomer, unassigned) [Example 32, N-{1-[5-chloro-8-(3-fluorophenyl)cinnolin-7-yl]propyl}-9H-purin-6-amine] | > 1000 nM
11 | COC1CCN(c2c(C(C)Nc3ncnc4[nH]cnc34)cc(Cl)c3cccnc23)CC1 (stereo not drawn) [Example 71, N-{1-[5-Chloro-8-(4-methoxypiperidin-1-yl)quinolin-7-yl]ethyl}-9H-purin-6-amine bis(trifluoroacetate)] | 50 to 100 nM
12 | CCc1cc(C(C)Nc2ncnc3[nH]cnc23)c(-c2cccc(F)c2)c2ncccc12 (stereo not drawn) [Example 51, N-{1-[5-Ethyl-8-(3-fluorophenyl)quinolin-7-yl]ethyl}-9H-purin-6-amine bis(trifluoroacetate)] | 50 to 100 nM
13 | Cc1cc(C(C)Nc2ncnc3[nH]cnc23)c(-c2cccc(F)c2)c2ncccc12 (stereo not drawn) [Example 50, N-{1-[8-(3-Fluorophenyl)-5-methylquinolin-7-yl]ethyl}-9H-purin-6-amine] | 100 to 250 nM
14 | CC(Nc1ncnc2[nH]cnc12)c1cc(Cl)c2ccccc2c1N1CCC(O)CC1 (stereo not drawn) [Example 45, 1-{4-Chloro-2-[1-(9H-purin-6-ylamino)ethyl]-1-naphthyl}piperidin-4-ol] | < 50 nM
15 | CC(Nc1ncnc2[nH]cnc12)c1ccc2ccccc2c1-c1cccc(F)c1 (stereo not drawn) [Example 1, N-{1-[1-(3-fluorophenyl)-2-naphthyl]ethyl}-9H-purin-6-amine trifluoroacetate] | 100 to 250 nM
16 | CC(Nc1ncnc2[nH]cnc12)c1cc(Cl)c2ccnnc2c1-c1ccccc1F (single isomer, unassigned) [Example 26, N-{1-[5-Chloro-8-(2-fluorophenyl)cinnolin-7-yl]ethyl}-9H-purin-6-amine] | 250 to 500 nM
17 | CC(Nc1ncnc2[nH]cnc12)c1cc(Cl)c2cnn(C)c2c1-c1cc(F)cc(F)c1 (stereo not drawn) [Example 107] | < 50 nM
18 | CC(Nc1ncnc2[nH]cnc12)c1cc(Cl)c2cccnc2c1N1CCN(C2CCC2)CC1 (stereo not drawn) [Example 69, N-{1-[5-Chloro-8-(4-cyclobutylpiperazin-1-yl)quinolin-7-yl]ethyl}-9H-purin-6-amine tris(trifluoroacetate)] | < 50 nM
19 | CC(=O)NC1CCN(c2c(C(C)Nc3ncnc4[nH]cnc34)cc(Cl)c3cccnc23)CC1 (stereo not drawn) [Example 82, N-(1-{5-Chloro-7-[1-(9H-purin-6-ylamino)ethyl]quinolin-8-yl}piperidin-4-yl)acetamide bis(trifluoroacetate)] | < 50 nM
20 | CC(Nc1nc(N)nc2[nH]cnc12)c1cc(F)c2ccnnc2c1-c1cccc(F)c1 (single isomer, unassigned) [Example 22, N(6)-{1-[5-Fluoro-8-(3-fluorophenyl)cinnolin-7-yl]ethyl}-9H-purine-2,6-diamine] | < 50 nM
21 | CC(Nc1ncnc2[nH]cnc12)c1cc(C#N)c2cccnc2c1-c1cccc(F)c1 (stereo not drawn) [Example 52, 8-(3-fluorophenyl)-7-[1-(9H-purin-6-ylamino)ethyl]quinoline-5-carbonitrile] | 50 to 100 nM
22 | CC(Nc1ncnc2[nH]cnc12)c1cc(F)c2ccnnc2c1-c1cccc(F)c1 (single isomer, unassigned) [Example 21, N-{1-[5-Fluoro-8-(3-fluorophenyl)cinnolin-7-yl]ethyl}-9H-purin-6-amine] | > 1000 nM
23 | CC(Nc1ncnc2[nH]cnc12)c1nc(C#N)c2ccccc2c1-c1cccc(F)c1 (stereo not drawn) [Example 54, 4-(3-fluorophenyl)-3-[1-(9H-purin-6-ylamino)ethyl]isoquinoline-1-carbonitrile] | 50 to 100 nM
24 | Cc1nc2c(-c3cccc(F)c3)c(C(C)Nc3ncnc4[nH]cnc34)ccc2s1 (stereo not drawn) [Example 2, N-{1-[4-(3-fluorophenyl)-2-methyl-1,3-benzothiazol-5-yl]ethyl}-9H-purin-6-amine trifluoroacetate] | > 1000 nM
25 | CC(Nc1ncnc2[nH]cnc12)c1cc(F)c2cccnc2c1N1CCN(C2CCC2)CC1 (stereo not drawn) [Example 55, N-{1-[8-(4-Cyclobutylpiperazin-1yl)-5-fluoroquinolin-7-yl]ethyl}-9H-purin-6-amine] | < 50 nM
26 | CC(Nc1ncnc2[nH]cnc12)c1cc(Cl)c2cccnc2c1N1CCC(CO)CC1 (stereo not drawn) [Example 64, (1-{5-Chloro-7-[1-(9H-purin-6-ylamino)ethyl]quinolin-8-yl}piperidin-4-yl)methanol tris(trifluoroacetate)] | 100 to 250 nM
27 | CC(Nc1ncnc2[nH]cnc12)c1cc(Cl)c2cccnc2c1N1CCN(C(=O)C2CCC2)CC1 (stereo not drawn) [Example 86, N-(1-{5-Chloro-8-[4-(cyclobutylcarbonyl)piperazin-1-yl]quinolin-7-yl}ethyl)-9H-purin-6-amine bis(trifluoroacetate)] | < 50 nM
28 | Cc1cc(C(C)Nc2ncnc3[nH]cnc23)c(-c2cc(F)cc(F)c2)c2nnccc12 (single isomer, unassigned) [Example 39, N-{1-[8-(3,5-difluorophenyl)-5-methylcinnolin-7-yl]ethyl}-9H-purin-6-amine] | > 1000 nM
29 | CC(Nc1ncnc2[nH]cnc12)c1cc(Cl)c2cccnc2c1N1CCN(C(=O)c2ccc(F)cc2)CC1 (stereo not drawn) [Example 91, N-(1-{5-Chloro-8-[4-(4-fluorobenzoyl)piperazin-1-yl]quinolin-7-yl}ethyl)-9H-purin-6-amine bis(trifluoroacetate)] | 100 to 250 nM
30 | CC(Nc1ncnc2[nH]cnc12)c1cc(Cl)c2cccnc2c1N1CCN(C2CCCCC2)CC1 (stereo not drawn) [Example 65, N-{1-[5-Chloro-8-(4-cyclohexylpiperazin-1-yl)quinolin-7-yl]ethyl}-9H-purin-6-amine tris(trifluoroacetate)] | 50 to 100 nM

Same assay, conditions: separated isomer, 1st peak

Row | Structure (SMILES) | IC50
31 | CCC(=O)N[C@H]1CCN(c2c(C(C)Nc3ncnc4[nH]cnc34)cc(Cl)c3cccnc23)C1 (stereo partly drawn) [Example 77, N-((3S)-1-{5-Chloro-7-[1-(9H-purin-6-ylamino)ethyl]quinolin-8-yl}pyrrolidin-3-yl)propanamide tris(trifluoroacetate)] | > 1000 nM
32 | CC(Nc1nc(N)nc2[nH]cnc12)c1ccc2ccccc2c1-c1cccc(F)c1 (stereo not drawn) [Example 4, N(6)-{1-[1-(3-fluorophenyl)-2-napthyl]ethyl}-9H-purine-2,6-diamine] | 500 to 1000 nM
33 | CC(Nc1ncnc2[nH]cnc12)c1cc(Cl)c2cccnc2c1N1CC[C@@H](O)C1 (stereo partly drawn) [Example 12, (3R)-1-{5-chloro-7-[1-(9H-purin-6-ylamino)ethyl]quinolin-8-yl}pyrrolidin-3-ol bis-trifluoroacetate] | > 1000 nM

Same assay, conditions: separated isomer, 2nd peak

Row | Structure (SMILES) | IC50
34 | CCC(=O)N[C@H]1CCN(c2c(C(C)Nc3ncnc4[nH]cnc34)cc(Cl)c3cccnc23)C1 (stereo partly drawn) [Example 77, N-((3S)-1-{5-Chloro-7-[1-(9H-purin-6-ylamino)ethyl]quinolin-8-yl}pyrrolidin-3-yl)propanamide tris(trifluoroacetate)] | < 50 nM
35 | CC(Nc1nc(N)nc2[nH]cnc12)c1ccc2ccccc2c1-c1cccc(F)c1 (stereo not drawn) [Example 4, N(6)-{1-[1-(3-fluorophenyl)-2-napthyl]ethyl}-9H-purine-2,6-diamine] | 500 to 1000 nM
36 | CC(Nc1ncnc2[nH]cnc12)c1cc(Cl)c2cccnc2c1N1CC[C@@H](O)C1 (stereo partly drawn) [Example 12, (3R)-1-{5-chloro-7-[1-(9H-purin-6-ylamino)ethyl]quinolin-8-yl}pyrrolidin-3-ol bis-trifluoroacetate] | < 50 nM
